Data taken from ChEMBL document CHEMBL1268977, “Efficient synthesis, spectral analysis and antimicrobial studies of nitrogen and sulfur containing spiro heterocycles from 2,4-diaryl-3-azabicyclo[3.3.1]nonan-9-ones” (2010).
In brackets after ≈: the same amount, converted by molar mass. Activity calls are given as the source filed them. The calls are words filed in the database; no cut-off is given here.

Assays:
Staphylococcus aureus = test: Antibacterial activity against Staphylococcus aureus ATCC 25930 after 24 hrs by serial dilution method; format: functional; details: ATCC 25930, 24 h
Salmonella typhi = test: Antibacterial activity against Salmonella typhi ATCC 25021 after 24 hrs by serial dilution method; format: functional, Salmonella enterica subsp. enterica serovar Typhi; details: Salmonella enterica, ATCC 25021, 24 h
Aspergillus flavus = test: Antifungal activity against Aspergillus flavus ATCC 525 after 72 to 96 hrs by serial dilution method; format: functional
Klebsiella pneumoniae [1] = test: Antibacterial activity against Klebsiella pneumoniae ATCC 16425 after 24 hrs by serial dilution method; format: functional; details: ATCC 16425, 24 h
Cryptococcus neoformans = test: Antifungal activity against Cryptococcus neoformans ATCC 3235 after 72 to 96 hrs by serial dilution method; format: functional
Bacillus subtilis = test: Antibacterial activity against Bacillus subtilis ATCC 530 after 24 hrs by serial dilution method; format: functional; details: ATCC 530, 24 h
Aspergillus niger [2] = test: Antifungal activity against Aspergillus niger ATCC 635 at 200 ug/ml after 72 to 96 hrs by serial dilution method; format: functional, organism-based
Rhizopus = test: Antifungal activity against Rhizopus species ATCC 2842 after 72 to 96 hrs by serial dilution method; format: functional
Candida albicans = test: Antifungal activity against Candida albicans ATCC 3430 after 72 to 96 hrs by serial dilution method; format: functional
Escherichia coli [3] = test: Antibacterial activity against Escherichia coli ATCC 26032 after 24 hrs by serial dilution method; format: functional; details: ATCC 26032, 24 h
Escherichia coli [4] = test: Antibacterial activity against Escherichia coli ATCC 26032 at 200 ug/ml after 24 hrs by serial dilution method; format: functional, organism-based
Aspergillus niger [5] = test: Antifungal activity against Aspergillus niger ATCC 635 after 72 to 96 hrs by serial dilution method; format: functional
Klebsiella pneumoniae [6] = test: Antibacterial activity against Klebsiella pneumoniae ATCC 16425 at 200 ug/ml after 24 hrs by serial dilution method; format: functional, organism-based

CC(=O)N(C1=NN(C(C)=O)C2(S1)C1CCCC2C(c2ccc(Cl)cc2)N(C(C)=O)C1c1ccc(Cl)cc1)c1ccccc1 (stereo not given)
MIC (Staphylococcus aureus): 12.5 µg/mL (≈ 19.7 µM) | MIC (Salmonella typhi): 12.5 µg/mL (≈ 19.7 µM) | MIC (Aspergillus flavus): 200 µg/mL (≈ 315 µM) | MIC (Klebsiella pneumoniae [1]): 50 µg/mL (≈ 78.7 µM) | MIC (Cryptococcus neoformans): 50 µg/mL (≈ 78.7 µM) | MIC (Bacillus subtilis): 25 µg/mL (≈ 39.3 µM) | inhibition (Aspergillus niger [2]): inactive | MIC (Rhizopus): 12.5 µg/mL (≈ 19.7 µM) | MIC (Candida albicans): 100 µg/mL (≈ 157 µM) | MIC (Escherichia coli [3]): 25 µg/mL (≈ 39.3 µM)

COc1cccc(C2NC(c3cccc(OC)c3)C3CCCC2C32SC(NC(C)=O)=NN2C(C)=O)c1 (stereo not given)
inhibition (Escherichia coli [4]): inactive | MIC (Staphylococcus aureus): 100 µg/mL (≈ 197 µM) | MIC (Aspergillus flavus): 200 µg/mL (≈ 393 µM) | MIC (Klebsiella pneumoniae [1]): 100 µg/mL (≈ 197 µM) | MIC (Cryptococcus neoformans): 50 µg/mL (≈ 98.3 µM) | MIC (Bacillus subtilis): 50 µg/mL (≈ 98.3 µM) | MIC (Aspergillus niger [5]): 100 µg/mL (≈ 197 µM) | MIC (Rhizopus): 50 µg/mL (≈ 98.3 µM) | MIC (Candida albicans): 25 µg/mL (≈ 49.2 µM) | MIC (Escherichia coli [3]): 200 µg/mL (≈ 393 µM)

CCC(=O)NC1=NN(C(=O)CC)C2(S1)C1CCCC2C(c2ccc(F)cc2)NC1c1ccc(F)cc1 (stereo not given)
MIC (Staphylococcus aureus): 25 µg/mL (≈ 48.8 µM) | MIC (Salmonella typhi): 6.25 µg/mL (≈ 12.2 µM) | MIC (Aspergillus flavus): 6.25 µg/mL (≈ 12.2 µM) | MIC (Klebsiella pneumoniae [1]): 25 µg/mL (≈ 48.8 µM) | MIC (Cryptococcus neoformans): 25 µg/mL (≈ 48.8 µM) | MIC (Bacillus subtilis): 6.25 µg/mL (≈ 12.2 µM) | MIC (Aspergillus niger [5]): 12.5 µg/mL (≈ 24.4 µM) | MIC (Rhizopus): 6.25 µg/mL (≈ 12.2 µM) | MIC (Candida albicans): 6.25 µg/mL (≈ 12.2 µM) | MIC (Escherichia coli [3]): 12.5 µg/mL (≈ 24.4 µM)

CC(=O)N(C1=NN(C(C)=O)C2(S1)C1CCCC2C(c2ccccc2Cl)NC1c1ccccc1Cl)c1ccccc1 (stereo not given)
MIC (Staphylococcus aureus): 25 µg/mL (≈ 42.1 µM) | MIC (Salmonella typhi): 100 µg/mL (≈ 168 µM) | MIC (Aspergillus flavus): 100 µg/mL (≈ 168 µM) | MIC (Klebsiella pneumoniae [1]): 100 µg/mL (≈ 168 µM) | MIC (Cryptococcus neoformans): 50 µg/mL (≈ 84.2 µM) | MIC (Bacillus subtilis): 12.5 µg/mL (≈ 21.1 µM) | MIC (Aspergillus niger [5]): 12.5 µg/mL (≈ 21.1 µM) | MIC (Rhizopus): 25 µg/mL (≈ 42.1 µM) | MIC (Candida albicans): 6.25 µg/mL (≈ 10.5 µM) | MIC (Escherichia coli [3]): 50 µg/mL (≈ 84.2 µM)

CC(=O)NC1=NN(C(C)=O)C2(S1)C1CCCC2C(c2ccc(C)cc2)NC1c1ccc(C)cc1 (stereo not given)
MIC (Staphylococcus aureus): 25 µg/mL (≈ 52.4 µM) | MIC (Salmonella typhi): 100 µg/mL (≈ 210 µM) | MIC (Aspergillus flavus): 12.5 µg/mL (≈ 26.2 µM) | MIC (Klebsiella pneumoniae [1]): 12.5 µg/mL (≈ 26.2 µM) | MIC (Cryptococcus neoformans): 50 µg/mL (≈ 105 µM) | MIC (Bacillus subtilis): 12.5 µg/mL (≈ 26.2 µM) | MIC (Aspergillus niger [5]): 50 µg/mL (≈ 105 µM) | MIC (Rhizopus): 25 µg/mL (≈ 52.4 µM) | MIC (Candida albicans): 25 µg/mL (≈ 52.4 µM) | MIC (Escherichia coli [3]): 100 µg/mL (≈ 210 µM)

CC(=O)NC1=NN(C(C)=O)C2(S1)C1CCCC2C(c2ccccc2Cl)NC1c1ccccc1Cl (stereo not given)
MIC (Staphylococcus aureus): 12.5 µg/mL (≈ 24.2 µM) | MIC (Salmonella typhi): 12.5 µg/mL (≈ 24.2 µM) | MIC (Aspergillus flavus): 12.5 µg/mL (≈ 24.2 µM) | MIC (Klebsiella pneumoniae [1]): 25 µg/mL (≈ 48.3 µM) | MIC (Cryptococcus neoformans): 50 µg/mL (≈ 96.6 µM) | MIC (Bacillus subtilis): 12.5 µg/mL (≈ 24.2 µM) | inhibition (Aspergillus niger [2]): inactive | MIC (Rhizopus): 12.5 µg/mL (≈ 24.2 µM) | MIC (Candida albicans): 12.5 µg/mL (≈ 24.2 µM) | MIC (Escherichia coli [3]): 12.5 µg/mL (≈ 24.2 µM)

COc1ccc(C2C3CCCC(C(c4ccc(OC)cc4)N2C(C)=O)C32SC(NC(C)=O)=NN2C(C)=O)cc1 (stereo not given)
MIC (Staphylococcus aureus): 25 µg/mL (≈ 45.4 µM) | MIC (Salmonella typhi): 50 µg/mL (≈ 90.8 µM) | MIC (Aspergillus flavus): 12.5 µg/mL (≈ 22.7 µM) | MIC (Klebsiella pneumoniae [1]): 25 µg/mL (≈ 45.4 µM) | MIC (Cryptococcus neoformans): 25 µg/mL (≈ 45.4 µM) | MIC (Bacillus subtilis): 50 µg/mL (≈ 90.8 µM) | inhibition (Aspergillus niger [2]): inactive | MIC (Rhizopus): 100 µg/mL (≈ 182 µM) | MIC (Candida albicans): 25 µg/mL (≈ 45.4 µM) | MIC (Escherichia coli [3]): 50 µg/mL (≈ 90.8 µM)

CCC(=O)NC1=NN(C(=O)CC)C2(S1)C1CCCC2C(c2cccc(OC)c2)N(C(=O)CC)C1c1cccc(OC)c1 (stereo not given)
MIC (Staphylococcus aureus): 100 µg/mL (≈ 169 µM) | MIC (Salmonella typhi): 200 µg/mL (≈ 337 µM) | MIC (Aspergillus flavus): 25 µg/mL (≈ 42.2 µM) | MIC (Cryptococcus neoformans): 200 µg/mL (≈ 337 µM) | MIC (Bacillus subtilis): 50 µg/mL (≈ 84.4 µM) | inhibition (Aspergillus niger [2]): inactive | MIC (Rhizopus): 50 µg/mL (≈ 84.4 µM) | inhibition (Klebsiella pneumoniae [6]): inactive | MIC (Candida albicans): 25 µg/mL (≈ 42.2 µM) | MIC (Escherichia coli [3]): 50 µg/mL (≈ 84.4 µM)

CCC(=O)N(C1=NN(C(=O)CC)C2(S1)C1CCCC2C(c2ccccc2Cl)NC1c1ccccc1Cl)c1ccccc1 (stereo not given)
MIC (Staphylococcus aureus): 6.25 µg/mL (≈ 10.1 µM) | MIC (Salmonella typhi): 25 µg/mL (≈ 40.2 µM) | MIC (Aspergillus flavus): 50 µg/mL (≈ 80.4 µM) | MIC (Klebsiella pneumoniae [1]): 25 µg/mL (≈ 40.2 µM) | MIC (Cryptococcus neoformans): 200 µg/mL (≈ 322 µM) | MIC (Bacillus subtilis): 50 µg/mL (≈ 80.4 µM) | MIC (Aspergillus niger [5]): 50 µg/mL (≈ 80.4 µM) | MIC (Rhizopus): 100 µg/mL (≈ 161 µM) | MIC (Candida albicans): 50 µg/mL (≈ 80.4 µM) | MIC (Escherichia coli [3]): 50 µg/mL (≈ 80.4 µM)

CCC(=O)NC1=NN(C(=O)CC)C2(S1)C1CCCC2C(c2ccccc2Cl)NC1c1ccccc1Cl (stereo not given)
MIC (Staphylococcus aureus): 50 µg/mL (≈ 91.7 µM) | MIC (Salmonella typhi): 25 µg/mL (≈ 45.8 µM) | MIC (Aspergillus flavus): 50 µg/mL (≈ 91.7 µM) | MIC (Klebsiella pneumoniae [1]): 25 µg/mL (≈ 45.8 µM) | MIC (Cryptococcus neoformans): 50 µg/mL (≈ 91.7 µM) | MIC (Bacillus subtilis): 12.5 µg/mL (≈ 22.9 µM) | MIC (Aspergillus niger [5]): 12.5 µg/mL (≈ 22.9 µM) | MIC (Rhizopus): 100 µg/mL (≈ 183 µM) | MIC (Candida albicans): 12.5 µg/mL (≈ 22.9 µM) | MIC (Escherichia coli [3]): 50 µg/mL (≈ 91.7 µM)

CN[C@@H]1[C@H](O[C@H]2[C@H](O[C@H]3[C@H](O)[C@@H](O)[C@H](N=C(N)N)[C@@H](O)[C@@H]3N=C(N)N)O[C@@H](C)[C@]2(O)C=O)O[C@@H](CO)[C@H](O)[C@H]1O [STREPTOMYCIN]
MIC (Staphylococcus aureus): 50 µg/mL (≈ 86 µM) | MIC (Salmonella typhi): 50 µg/mL (≈ 86 µM) | MIC (Klebsiella pneumoniae [1]): 25 µg/mL (≈ 43 µM) | MIC (Bacillus subtilis): 12.5 µg/mL (≈ 21.5 µM) | MIC (Escherichia coli [3]): 12.5 µg/mL (≈ 21.5 µM)
